# How the values were obtained:
# [1] = system: Wnt target genes BIRC5/Survivin and EphB2; assay: Quantitative RT-PCR of Wnt target genes in human glioma cell lines; format: cell-based
# Method: FIG. 15. Expression of target genes post-ICG-001 treatment (0-10 μM) by RT-PCR using (A-C) mouse Survivin in GL261-IL13, GL261, and K-luc cells. (D) Survivin in PBT147 human glioma cells. (E, F) Luciferase reporter assay indicating downregulation of Survivin/BIRC5 in PBT017 and PBT030 cell lines.
# FIG. 16 is a table showing the expression of the target genes survivin/BIRC5 post-ICG-001 treatment ([…]) as detected by RT-PCR and Luciferase Reporter Assay.
# ICG-001 differentially affects the expression of the Wnt target genes BIRC5/Survivin and EphB2 in vitro. […] The effects of ICG-001 on Wnt/CBP/β-catenin signaling were further confirmed using a Survivin-luciferase reporter assay (FIG. 15). ICG-001's selective effects on the expression of Survivin and EphB2 may serve as indicators of ICG-001 on target tissue activity in vivo (FIG. 16) and a readout for pharmacokinetics/pharmacodynamics (PK/PD) as used previously in clinical trials with the second-generation CBP/β-catenin specific antagonist PRI-724 (Anthony et al. 2013).
# [2] = system: PBT147 and PBT030 glioma cell lines; assay: Global proteomic analysis of PBT147 and PBT030; format: cell-based, human; settings: 72 h
# Method: FIG. 18. Proteomics analysis of PBT147 and PBT030 cell lines treated with ICG-001 (0-10 μM) for 72 h. (A) Protein density was calculated by the difference in log normalized levels for each protein between the four treated samples and the appropriate untreated sample. (B) Calculating the difference in log levels corresponds also to looking at the log of the fold changes in each protein. For both cell lines, the log fold-change for each protein at […] was plotted against the log fold-change at 10 μg. These plots are shown in A, with the points color-coded by cell line. This highlights a positive linear relationship between the log fold changes at 5 μg and 10 μg in both cell lines. […] The heatmap has been generated using Ward's method for clustering and the Manhattan (L1) distance. To highlight patterns of similar changes in regulation over cell lines and doses, rather than absolute differences in protein levels, quantile normalization has been used before creating the heatmap, with protein levels in each sample being normalized to that of a uniform distribution on −1≤x≤1.
# FIG. 19 is a table showing a proteomics analysis at 72 hours for two cell lines (PB147, PB030) treated with ICG-001 in vitro at three doses (0 μg, 5 μg, 10 μg). 1557 proteins were quantified.
# Proteomics data analysis. […] To examine the effect of the drug, the difference in log normalized levels for each protein between the four treated samples and the appropriate untreated sample was calculated, which corresponds to examining the log of the fold changes in each protein after treatment. For each of the two cell lines, the log fold change for each protein at 5 μg was plotted against the log fold change at 10 μg. These plots are shown in FIG. 17, with the points colored-coded by cell line. The line of (linear) regression is calculated and shown for each cell line.
# The heatmap has been constructed by using Ward's method for clustering and the Manhattan (L1) distance. To highlight patterns of similar changes in regulation over cell-lines and doses, rather than absolute differences in protein levels, quantile normalization has been used before creating the heatmap, with protein levels in each sample being normalized those of a uniform distribution on −1≤x≤1.
# Proteomics analyses of the PBT147 and PBT030 glioma cell lines after treatment with ICG-001 to elucidate targeted pathways in vitro. […]
# To examine the effect of ICG-001, the difference in log-normalized levels was calculated for each protein between the four treated samples and the appropriate untreated samples (which corresponds to looking at the log of the fold changes in each protein). […] The line of (linear) regression is calculated and plotted for each cell line. […]
# [3] = system: CAR T cells (HER2 and mock); assay: Viability and cell count of CAR T / mock T cells treated with ICG-001; format: cell-based; settings: ICG001 0, 2.5, 5 uM for 24-72 h
# Method: FIG. 27. T cells treated with ICG001 2.5 and 5 μM for 24 or 72 h. (A) CAR Ts mock and HER2 from one donor and mock CARs derived from two additional donors were plated on 6-well format plates and treated with ICG001 at concentrations 0-5 μM for 24 or 72 h. Cells were collected from each well, counted, and viability was determined. (B, C) NanoString analysis of T cells treated with ICG-001 to determine concentration-dependent metabolic changes. […] (E) Correlation of differential gene expression in all T cell lines combined at concentration of 2.5 and 5 μM.
# FIG. 29 is a bar graph showing the results of studies where CAR T calls are treated with ICG001 for 24 hours according to some embodiments. To determine how treatment with ICG001 affects the T cells, the following method was employed. On day 1, CAR Ts HER 2 or Mock CARs derived from the same donor and additional 2 donor mock cells were plated on 6 well format plates and treated with ICG001 0 uM, 2.5 uM, 5 uM for 24-72 h. On day 5, cells were collected per well, counted, cell viability was determined [pellets were frozen]. […] Note: CAR T from 494 donor treated with ICG001 were used in cytotoxicity assay #19 in comparison with untreated 4949 CARs.
structure (smiles),measurement,setting,value
O=C1[C@H](Cc2ccc(O)cc2)N2C(=O)CCN(C(=O)NCc3ccccc3)[C@H]2CN1Cc1cccc2ccccc12 [ICG-001],expression of Wnt/p300/β-catenin target gene EphB2,[1],upregulating
same,expression of Wnt/CBP/β-catenin target gene BIRC5/Survivin,[1]; ICG-001 0-10 μM,selectively downregulated
same,"dose effect on protein fold change, PBT030 versus PBT147",[2]; 5 μM versus 10 μM,significantly greater in PBT030 than PBT147
same,HA and LDHA protein expression,"[2]; ICG-001 0, 5, and 10 μM",loss
same,PKM1 protein expression,"[2]; ICG-001 0, 5, and 10 μM",increased
same,protein translation,"[2]; ICG-001 0, 5, and 10 μM",overall increase in protein translation
same,CAR T cell viability and proliferation,[3],not toxic to T cells in vitro
same,CAR T cell viability and proliferation,[3]; listed as ICG001,not affecting Car T cell viability and proliferation
